Measured values from publication PMC7064771, “Repurposed Drugs That Block the Gonococcus-Complement Receptor 3 Interaction Can Prevent and Cure Gonococcal Infection of Primary Human Cervical Epithelial Cells” (mBio, 2020).
Entries after “also recorded” stand apart in the source; their conditions may differ. Where two headings read alike, the source gives them in different places.

Assays:
human rI-domain [1] = target: T1, human rI-domain (Homo sapiens, UniProt P11215); assay: Surface plasmon resonance, immobilized human rI-domain; type: binding
T1 construct: Recombinant human and mouse I-domain proteins were made and purified as previously described; made in house
Procedure: (§1) SPR analyses were performed using a Biacore S200 system (GE Healthcare Life Sciences, Parramatta, NSW, Australia). Samples were analyzed at 25°C in phosphate-buffered saline (PBS) at a flow rate of 10 μl/min and by using single-cycle kinetics. Human rI-domain, mouse rI-domain, and human rCR3 were immobilized onto separate cells of a Series S CM5 sensor chip using an NHS capture kit (both from GE Healthcare Life Sciences) for purified pilin experiments. For experiments in which pilin-glycan-like structures were examined, human rI-domain and rCR3 were immobilized onto separate cells of a CM5 chip. A blank immobilization was used as a control/reference on all chips. MS11 wild-type and MS11 pglA pilin were serially diluted from 2 μM to 0.125 μM in PBS. Glycans (Dextra Laboratories, Reading, UK) (Table 2), resembling the gonococcal Gal(α1-3)diNAcBac pilin-linked glycan, were serially diluted from 2 μM to 0.0078 μM in PBS. Affinity data points were taken at 15 s after injection to avoid an artefactual signal resulting from bulk transport. SPR sensorgrams were analyzed using Biacore Evaluation software (GE Healthcare Life Sciences).

[2] = target: T2, human rCR3 (integrin αMβ2) (Homo sapiens, UniProt P05107+P11215); assay: Surface plasmon resonance, immobilized human rCR3; type: binding
T2 construct: purchased R&D Systems
Procedure: as §1

G2 peptide = target: T3, G2 peptide (Homo sapiens, UniProt P11215); assay: SPR of glycans over immobilized biotin-AhxG2-streptavidin complex; type: binding; settings: for KD, G2 Peptide: synthetic glycans over biotin-Ahx-labeled G2 peptide complexed with streptavidin, NCDI = no concentration-dependent interaction
T3 construct: corresponds to amino acids Arg197 to Pro211 of human CD11b
Procedure: To assess the kinetics of the selected peptides, biotinylated versions of each peptide were synthesized. This enabled immobilization via streptavidin onto Series S CM5 sensor chips. Purified biotin-AhxG2 (G2 peptide with a six-carbon spacer linked to biotin) (Table S1), was incubated with streptavidin (Sigma, Castle Hill, NSW, Australia) for 2 h on ice at a 12:1 molar ratio of peptide to protein. Unreacted peptide was removed using a 10-kDa-molecular-weight-cutoff size exclusion column (EMD Millipore, Bayswater, VIC, Australia). Semi-native SDS-PAGE analysis was used to confirm peptide binding to streptavidin. To this end, streptavidin-peptide complexes were added to nonreducing NuPAGE sample buffer (Life Technologies, Scoresby, VIC, Australia). To ensure that peptide-streptavidin complexes were not denatured, heat was not applied before loading onto SDS-polyacrylamide 4% to 12% gradient gels (Life Technologies). A streptavidin-biotin complex was used as a reference control for the molecular weight shift that could be attributed to the peptide. Serially diluted glycans (1 μM to 0.0625 μM) were flowed over sensor chips. Other aspects of SPR analysis were as described above.

[3] = target: T4, human rCR3 (integrin αMβ2) (Homo sapiens, UniProt P11215); assay: Surface plasmon resonance, immobilized human rCR3; type: binding
T4 construct: purchased R&D Systems
Procedure: as §1

[4] = system: N. gonorrhoeae adherence to Pex cells; assay: Fluorometric adherence assay, Pex cells; type: cell-based, human; settings: for Gonococcal adherence to Pex cells (fluorescence): 1-h infection with GFP-expressing N. gonorrhoeae, competitor added simultaneously
Procedure: (§2) Fluorometric adherence assays were performed essentially as described previously ([36]). In brief, N. gonorrhoeae MS11 gfp was used to challenge (1 h) Pex or CHO cells simultaneously with peptide or drug competitor. Infected (devoid of peptide or drug) and uninfected (with peptide, drug, or dimethyl sulfoxide [DMSO] vehicle) control cell assays were treated in parallel with competitive peptide/drug inhibition assays. Fluorescence (485 nm excitation, 528 nm emission) intensity, corresponding to bacterial adherence, was recorded using a Synergy HT multimode microplate reader (BioTek Instruments, Winooski, VT, USA). Blank wells, devoid of Pex or CHO cells, were inoculated with bacteria and served as a control for nonspecific binding. Each assay was performed in triplicates on 3 separate occasions. Peptides used are described in Table S1. A nonparametric analysis of variance (ANOVA) was used to determine the statistical significance of the calculated mean of bacterial adherence.

[5] = system: N. gonorrhoeae adherence to CHO-CR3 cells; assay: Fluorometric adherence assay, CHO-CR3 cells; type: cell-based, Chinese hamster; settings: for Gonococcal adherence to CHO-CR3 cells (fluorescence): 1-h infection with GFP-expressing N. gonorrhoeae, competitor added simultaneously
Procedure: as §2

[6] = system: N. gonorrhoeae adherence to CHO-neo cells; assay: Fluorometric adherence assay, CHO-neo cells; type: cell-based, Chinese hamster; settings: 1-h infection; cells do not express CR3
Procedure: as §2

human rI-domain [7] = target: T1, human rI-domain; assay: Repurposed drug SPR against human CR3 I-domain (single-cycle kinetics); settings: 10 nM to 0.625 nM, read-out: KD, binding to human rI-domain
Procedure: Human rI-domain was immobilized onto a CM5 sensor chip with a blank control flow cell as described above. A combination of two FDA-approved drug libraries, Microsource-CPOZ (2,400 drugs) and ML Drug (741 drugs), was purchased from Compounds Australia. […] A single-concentration injection screen (yes/no) binding assay was performed. Binding was determined based on the response unit shift (equal to the molecular weight-corrected response units of the positive-control glycan) of the stability of the binding phase of the dissociation cycle. […] For carbamazepine and methyldopa, saturation occurred between 1.6 nM and 8 nM, and so a new concentration range (10 nM to 0.625 nM) was tested. […] All SPR sensorgrams and result plots described above were analyzed with Biacore S200 evaluation software (GE Healthcare Life Sciences). A literature review was used to evaluate the remaining drugs for known long-term safety in humans and known therapeutic concentrations.

human rI-domain [8] = target: T1, human rI-domain; assay: Direct competition SPR, drug versus N. gonorrhoeae MS11 pilin; type: binding; settings: drug and pilin at 1 μM
[9] = system: N. gonorrhoeae infection of Pex cells
Procedure: Infection studies were performed as previously described with modification using a multiplicity of infection of 100 ([44]). To establish infection before treatment, Pex cells were challenged with N. gonorrhoeae for 90 min. The infection medium was then removed, the cells were rinsed thrice, and fresh medium containing 0.1% DMSO (vehicle control), carbamazepine (100 pM to 100 μM), methyldopa (100 pM to 100 μM), or ceftriaxone (0.1 μg/ml or 0.5 μg/ml, positive control) was added. Infections then proceeded for an additional 24 h or 48 h, after which, the infection medium was removed. Pex cell monolayers were subsequently lysed, serial dilutions of the Pex cell lysates were plated, and viable gonococci were enumerated by counting CFU after 48 h of incubation (37°C, 5% CO2). For sequential infection assays, viable bacterial colonies that survived a treatment assay were harvested from the enumeration (CFU) plates and used to inoculate new Pex cell monolayers. For these sequential assays, each infection (the original infection or the infection with bacteria that had survived the original infection) proceeded for 24 h. Pex cells were then processed, and bacteria were enumerated, as described above. For all assays, the percentage of N. gonorrhoeae that survived carbamazepine, methyldopa, or ceftriaxone treatment was determined as a function of bacteria that survived DMSO treatment (set to 100%). All assays were performed in triplicates on 3 separate occasions. A nonparametric ANOVA was used to determine the statistical significance of bacterial survival.

N. gonorrhoeae strains = assay: Well diffusion assay; type: cell-based, Neisseria gonorrhoeae; settings: 100 pM to 100 μM in wells, overnight
Procedure: Well diffusion assays were performed essentially as described previously ([56]). Briefly, N. gonorrhoeae strains were spread uniformly across the surfaces of GC agar plates at a culture density of 10^7 bacteria per ml. Wells were then punctured within the agar surface to which carbamazepine or methyldopa (100 pM to 100 μM), 0.2 μg/ml ceftriaxone, 10 μg/ml ciprofloxacin, or 1% DMSO (vehicle control) was added. Following an overnight incubation (37°C, 5% CO2), inhibition of N. gonorrhoeae growth was measured as the diameter (in millimeters) of the area of clearing surrounding (and inclusive of) each well on each agar plate, i.e., the zone of inhibition (ZOI). For agar plates in which a ZOI was not visible, data were recorded as the diameter of the well (6 mm). Assays were performed in triplicates on 3 separate occasions. Statistical significance of data obtained was determined using a Student's t test.

human rI-domain [10] = target: T1, human rI-domain; assay: Competitive SPR peptide library screen with galactobiose, rI-domain; type: binding; settings: peptide-galactobiose molar ratio 25:1
Excerpt: (§3) The human I-domain sequence (NP_000623.2, amino acids Gly127 to Ala325 of CD11b) was used to generate a peptide library (Mimotopes; Mulgrave, VIC, Australia). Each peptide comprised 15 amino acids, with a 5-amino-acid sliding window, to give a 10-amino-acid overlap down the sequence, for a total of 40 peptides (see Table S1 in the supplemental material). Competitive SPR (Biacore T200 system; GE Healthcare Life Sciences) was used to screen the blocking potential of the peptide library. To this end, 100 μg/ml of each peptide was mixed with […] (2 μM) α1-3 galactobiose and flowed over immobilized human rI-domain and rCR3 on a Series S CM5 chip. Flow cell 1 was a blank immobilization/reference cell. Blocking peptides were defined as those peptides in which the peptide plus glycan response was less than those for the peptide and glycan alone. SPR sensorgrams were analyzed as noted above.

rCR3 = target: T5, rCR3 (Homo sapiens, UniProt P11215); assay: Competitive SPR peptide library screen with galactobiose, rCR3; type: binding; settings: peptide-galactobiose molar ratio 25:1
T5 construct: purchased R&D Systems
Excerpt: as §3

[11] = synthetic glycans, NCDI = no interaction at any concentration between 0.0078 μM and 2 μM, read-out: KD, rI-domain
[12] = synthetic glycans, NCDI = no interaction at any concentration between 0.0078 μM and 2 μM, read-out: KD, rCR3
[13] = synthetic glycans, NCDI = no interaction at any concentration between 0.0078 μM and 2 μM

OCC1OC(OC2C(O)C(O)OC(CO)C2O)C(O)C(O)C1O (centres unmarked) [Galactobiose]
Kd (human rI-domain [1]): 229 ± 73.1 nM
Kd [2]: 68.7 ± 1.75 nM
Kd (G2 peptide): 174 ± 45.1 nM

OC[C@H]1O[C@@H](O[C@H]2[C@H](O)[C@@H](O)[C@H](O)O[C@@H]2CO)[C@H](O)[C@@H](O)[C@H]1O [Lactose]
Kd (human rI-domain [1]; [11]): 117 ± 13.3 nM
Kd [2, 12]: 138 ± 33.7 nM

CC(=O)NC1C(O)OC(CO)C(OC2OC(CO)C(O)C(OC3OC(CO)C(O)C(O)C3O)C2O)C1O (centres unmarked) [Linear B-2 Trisaccharide]
Kd (human rI-domain [1]; [11]): 293 ± 13.1 nM
Kd [2, 12]: 44.8 ± 18.1 nM

CO[C@H]1O[C@H](CO)[C@H](O)[C@H](O)[C@H]1O [Methyl-α-D-galactose]
Kd (human rI-domain [1]; [11]): 269 ± 85.1 nM
Kd [2, 12]: 56.5 ± 19.8 nM
Kd (G2 peptide): 118 ± 11.8 nM

CC(=O)NC1C(O)OC(CO)C(OC2OC(CO)C(OC3OC(CO)C(O)C(O)C3O)C(O)C2O)C1O (centres unmarked) [P1 Antigen]
Kd (human rI-domain [1]; [11]): 202 ± 48.7 nM
Kd [2, 12]: 48.3 ± 14.2 nM

OC[C@H]1O[C@@](CO)(O[C@H]2O[C@H](CO)[C@@H](O)[C@H](O)[C@H]2O)[C@@H](O)[C@@H]1O [Sucrose]
KD, rI-domain (human rI-domain [1]; [13]): did not bind and NCDI
KD, rCR3 [3, 13]: did not bind and NCDI
KD, G2 Peptide (G2 peptide): NCDI
KD, G2 Peptide (G2 peptide; listed as sucrose): no concentration-dependent interaction

C[C@](N)(Cc1ccc(O)c(O)c1)C(=O)O [methyldopa]
Gonococcal adherence to Pex cells (fluorescence) [4]: decreased in a dose-dependent manner
Gonococcal adherence to Pex cells (fluorescence) ([4]; listed as Methyldopa): dose-dependent decrease
Gonococcal adherence to CHO-CR3 cells (fluorescence) [5]: decreased in a dose-dependent manner; also recorded: CR3- and dose-dependent reduction
Gonococcal adherence to CHO-neo cells (fluorescence) [6]: but not to CHO-neo cells
Kd (human rI-domain [7]): 1.01 nM
Blocking of the interaction of N. gonorrhoeae MS11 pilin with rCR3 or rI-domain (human rI-domain [8]): completely blocked
N. gonorrhoeae strain MS11 survival ([9]; 24 h posttreatment, 100 pM to 100 μM): dose-dependent reductions
Numbers of viable gonococci, low-passage-number gonococcal isolates ([9]; 24 h posttreatment, established Pex cell infections): significant reductions
Efficacy in treating multidrug-resistant gonococci compared with ceftriaxone ([9]; panel of multidrug-resistant N. gonorrhoeae isolates): more effective than ceftriaxone
Effect on gonococcal viability in the absence of Pex cells (zone of inhibition) (N. gonorrhoeae strains): no effect; also recorded: neither carbamazepine nor methyldopa had an effect

OCC1OC(OC2C(O)C(CO)OC(OC3C(CO)OC(OC4C(O)C(O)OC(CO)C4O)C(O)C3O)C2O)C(O)C(O)C1O (stereo not drawn) [α1-3,β1-4,α1-3 Galactotetraose]
Kd (human rI-domain [1]; [11]): 320 ± 67.2 nM
Kd [3, 12]: 26.2 ± 9.18 nM

OC[C@H]1O[C@@H](O[C@H]2[C@H](O)[C@@H](O)[C@@H](O)O[C@@H]2CO)[C@H](O)[C@@H](O)[C@H]1O [αLactose]
Kd (human rI-domain [1]; [11]): 202 ± 54.4 nM
Kd [2, 12]: 79.8 ± 15 nM

H-CATFTAPGRTSTFSF-OH [P2, H-CATFTAPGRTSTFSF-OH]
Gonococcal adherence to Pex cells (fluorescence) [4]: nonblocking
Gonococcal adherence to CHO-CR3 cells (fluorescence) [5]: nonblocking

H-CNNPSSTVPHNVDFH-OH [P1]
Gonococcal adherence to Pex cells (fluorescence) [4]: nonblocking
Gonococcal adherence to CHO-CR3 cells (fluorescence) [5]: nonblocking

H-RIHFTFKEFQNNPNP-OH [G2]
Blocking of galactobiose binding to rI-domain (human rI-domain [10]): able to block
Blocking of galactobiose binding to rCR3 (rCR3): able to block
Gonococcal adherence to Pex cells, difference from uninfected cells ([4]; 100 μM peptide, P ≥ 0.45): not significantly
Gonococcal adherence to Pex cells (fluorescence) [4]: decreased; also recorded: dose-dependent reduction
Gonococcal adherence to CHO-CR3 cells, difference from uninfected cells ([5]; 100 μM peptide, P ≥ 0.67): not significantly
Gonococcal adherence to CHO-CR3 cells (fluorescence) [5]: decreased; also recorded: dose-dependent reduction

MS11 wild type: N. gonorrhoeae MS11 pilin modified with the Gal(α1-3)diNAcBac disaccharide glycan
Kd ([3]; purified pilin 0.125-2 μM, NCDI = no concentration-dependent interaction (no binding of ≤2 μM), read-out: KD, Human CR3): 907 ± 43.8 nM
